Measurements as given in patent US10829473B2, “Modulators of the cystic fibrosis transmembrane conductance regulator protein and methods of use” (AbbVie Overseas S.Á.R.L., priority 2017, dated 2020).
Like-named read-outs stand apart in the source and are kept apart here.

Biological target: T1, F508delCFTR (Homo sapiens, UniProt P13569, DEL508-508)
T1 construct: expressed in transfected cells; host or cells: CFBE41o- human lung derived epithelial cells (CFBE41o-F508delCFTR-HRP), doxycycline-inducible
T1 sequence (P13569 with tags, fused parts or gaps DEL508-508): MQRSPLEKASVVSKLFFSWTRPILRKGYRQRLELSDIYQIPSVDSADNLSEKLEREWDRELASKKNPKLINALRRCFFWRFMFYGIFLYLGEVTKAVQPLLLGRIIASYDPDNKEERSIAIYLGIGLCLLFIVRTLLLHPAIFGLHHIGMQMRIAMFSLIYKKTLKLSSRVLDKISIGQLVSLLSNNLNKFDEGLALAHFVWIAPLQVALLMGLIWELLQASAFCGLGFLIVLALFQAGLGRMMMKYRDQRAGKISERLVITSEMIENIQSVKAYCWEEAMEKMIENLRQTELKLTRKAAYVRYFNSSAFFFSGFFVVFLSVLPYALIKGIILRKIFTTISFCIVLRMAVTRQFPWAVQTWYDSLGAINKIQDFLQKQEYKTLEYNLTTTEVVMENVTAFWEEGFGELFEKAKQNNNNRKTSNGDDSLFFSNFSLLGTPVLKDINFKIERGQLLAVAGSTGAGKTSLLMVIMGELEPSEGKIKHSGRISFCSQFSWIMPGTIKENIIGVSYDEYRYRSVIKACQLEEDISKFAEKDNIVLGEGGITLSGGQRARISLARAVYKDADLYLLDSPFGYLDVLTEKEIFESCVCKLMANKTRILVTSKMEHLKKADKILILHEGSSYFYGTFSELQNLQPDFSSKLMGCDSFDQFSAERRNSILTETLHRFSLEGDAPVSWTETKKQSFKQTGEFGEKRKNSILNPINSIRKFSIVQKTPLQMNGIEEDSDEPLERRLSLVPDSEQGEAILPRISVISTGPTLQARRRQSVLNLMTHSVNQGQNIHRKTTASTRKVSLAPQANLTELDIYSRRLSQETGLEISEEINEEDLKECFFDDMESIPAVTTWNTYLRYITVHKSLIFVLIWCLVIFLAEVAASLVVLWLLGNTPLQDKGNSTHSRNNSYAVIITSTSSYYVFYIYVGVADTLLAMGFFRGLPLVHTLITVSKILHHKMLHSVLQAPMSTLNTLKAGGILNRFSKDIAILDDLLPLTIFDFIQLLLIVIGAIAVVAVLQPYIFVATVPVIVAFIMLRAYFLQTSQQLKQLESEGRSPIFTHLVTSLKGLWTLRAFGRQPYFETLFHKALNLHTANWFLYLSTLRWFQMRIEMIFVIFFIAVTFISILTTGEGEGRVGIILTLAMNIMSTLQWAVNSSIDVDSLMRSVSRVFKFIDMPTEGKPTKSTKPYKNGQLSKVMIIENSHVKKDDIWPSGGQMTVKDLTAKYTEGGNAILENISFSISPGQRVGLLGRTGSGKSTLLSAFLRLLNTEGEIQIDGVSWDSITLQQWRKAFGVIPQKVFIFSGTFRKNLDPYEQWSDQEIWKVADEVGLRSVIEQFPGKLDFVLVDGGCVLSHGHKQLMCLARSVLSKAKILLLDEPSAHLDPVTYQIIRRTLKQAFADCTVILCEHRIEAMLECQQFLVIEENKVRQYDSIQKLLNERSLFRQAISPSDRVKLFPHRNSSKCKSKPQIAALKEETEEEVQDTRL
Test: Cell Surface Expression-Horse Radish Peroxidase (CSE-HRP) Assay;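 for EC50 (with co-corrector): co-corrector chromenyl benzoic acid corrector at 2 or 3 µM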
Type: cell-based
Conditions: for Maximum % activity (with co-corrector) / Emax: maximum at any tested concentration; for Emax: read-out: Maximum % activity (without co-corrector)
Protocol: A cellular assay for measuring the F508delCFTR cell surface expression after correction with test compounds either without or with a co-corrector (2 μM of 3-[(2R,4R)-4-({[1-(2,2-difluoro-1,3-benzodioxol-5-yl)cyclopropyl]carbonyl}amino)-7-methoxy-3,4-dihydro-2H-chromen-2-yl]benzoic acid), was developed in human lung derived epithelial cell line (CFBE4lo−) (Veit G et al, (2012) Mol Biol Cell. 23(21): 4188-4202). The development was achieved by expressing the F508delCFTR mutation along with a horseradish peroxidase (HRP) in the fourth exofacial loop, and then measuring the HRP activity using luminescence readout from these cells, CFBE410-F508delCFTR-HRP, that were incubated overnight with the test corrector compounds, either without or with the co-corrector. For this primary assay, the CFBE410-F508delCFTR-HRP cells were plated in 384-well plates (Greiner Bio-one; Cat 781080) at 4,000 cells/well along with 0.5 μg/mL doxycycline to induce the F508delCFTR-HRP expression and further incubated at 37° C., 5% CO2 for 68-72 hours. The test compounds were then added either without or with a co-corrector at the required concentrations and further incubated for 18-24 hours at 33° C. The highest concentration tested was 20 μM or 30 μM (GI-1 to GIII-36) with an 8-point concentration response curve using a 3-fold dilution in both the test compound without or with the co-corrector. Three replicate plates were run to determine one EC50. All plates contained negative controls (dimethyl sulfoxide, DMSO) and positive control (2 μM or 3 μM (GI-1 to GIII-36) of 3-[(2R,4R)-4-({[1-(2,2-difluoro-1,3-benzodioxol-5-yl)cyclopropyl]carbonyl}amino)-7-methoxy-3,4-dihydro-2H-chromen-2-yl]benzoic acid) as well as on-plate concentration response of the positive control. Post incubation, the plates were washed 5× times with Dulbecco's phosphate buffered saline (DPBS), followed by the addition of the HRP substrate, luminol (50 4), and measuring the HRP activity using luminescence readout on EnVision® Multilabel Plate Reader (Perkin Elmer; product number 2104-0010). The raw counts from the experiment were analyzed using Accelrys® Assay Explorer v3.3.
Z′ greater than 0.5 was used as passing quality control criteria for the plates.
The Z′ is defined as: 1−[3*SDPositve Control+3*SDNegative Control/Absolute(MeanPositive Control−MeanNegative Control)] wherein “SD” is standard deviation.
The % activity measured at each of the 8 test concentrations of the test compound added either without or with a co-corrector (2 μM or 3 μM (GI-1 to GIII-36) of 3-[(2R,4R)-4-({[1-(2,2-difluoro-1,3-benzodioxol-5-yl)cyclopropyl]carbonyl}amino)-7-methoxy-3,4-dihydro-2H-chromen-2-yl]benzoic acid) was normalized to the on-plate positive control using the following formulae: % activity (Test compound without co-corrector)=[(test compound without co-corrector response DMSO response)/(positive control response DMSO response)]*100 % activity (Test compound with co-corrector)=[(test compound with co-corrector response DMSO response)/(positive control response DMSO response)]*100
The maximum % activity achieved for the test compound either without or with a co-corrector at any tested concentration is presented in Table 6 along with the respective EC50's calculated using the following general sigmoidal curve with variable Hill slope equation (described as Model 42 in the Accelrys® Assay Explorer v3.3 software): y=(a−d)/(1+(x/c)b)+d
General sigmoidal curve with concentration, response, top, bottom, EC50 and Hill slope. This model describes a sigmoidal curve with an adjustable baseline, a. The equation can be used to fit curves where response is either increasing or decreasing with respect to the independent variable, “x”.
“x” is a concentration of drug under test.
“a” is the maximum response, and “d” is the minimum response
“c” is the inflection point (EGO for the curve. That is, “y” is halfway between the lower and upper asymptotes when x=c.
“b” is the slope-factor or Hill coefficient. […]

[1] = test compound with co-corrector
[2] = test compound with co-corrector, read-out: EC50 (with co-corrector)
[3] = test compound without co-corrector
[4] = test compound without co-corrector, read-out: EC50 (without co-corrector)

Structure (SMILES) | Maximum % activity (with co-corrector) [1] | EC50 [2] | Emax [3] | EC50 [4]
Cc1ccc2c(S(=O)(=O)NC(=O)C3(c4cc(Cl)cnc4N4CCCC4)CC3)cccc2n1 [Example GI-36, 1-[5-chloro-2-(pyrrolidin-1-yl)pyridin-3-yl]-N-(2-methylquinoline-5-sulfonyl)cyclopropane-1-carboxamide] | +++ (≥350) | < 3 µM | > 150% | 3 to 10 µM
CCc1cnc(N2CCCC2)c(C2(C(=O)NS(=O)(=O)c3cccc4[nH]ccc34)CC2)c1 [Example GI-37, 1-[5-ethyl-2-(pyrrolidin-1-yl)pyridin-3-yl]-N-(1H-indole-4-sulfonyl)cyclopropane-1-carboxamide] | +++ (≥350) | < 3 µM | > 150% | 3 to 10 µM
CC(C)Oc1ccc(C2CCC2)nc1C1(C(=O)NS(=O)(=O)c2cccc3[nH]ccc23)CC1 [Example GI-38, 1-{6-cyclobutyl-3-[(propan-2-yl)oxy]pyridin-2-yl}-N-(1H-indole-4-sulfonyl)cyclopropane-1-carboxamide] | +++ (≥350) | < 3 µM | > 150% | < 3 µM
CC(C)Oc1ccc(C2CCC2)nc1C1(C(=O)NS(=O)(=O)c2cccc3ncccc23)CC1 [Example GI-39, 1-{6-cyclobutyl-3-[(propan-2-yl)oxy]pyridin-2-yl}-N-(quinoline-5-sulfonyl)cyclopropane-1-carboxamide] | +++ (≥350) | < 3 µM | > 150% | < 3 µM
CCc1cnc(OC(C)C)c(C2(C(=O)NS(=O)(=O)c3cccc4nc(C)ccc34)CC2)c1 [Example GI-40, 1-{5-ethyl-2-[(propan-2-yl)oxy]pyridin-3-yl}-N-(2-methylquinoline-5-sulfonyl)cyclopropane-1-carboxamide] | +++ (≥350) | < 3 µM | > 150% | < 3 µM
CCc1cnc(OC(C)C)c(C2(C(=O)NS(=O)(=O)c3cccc4[nH]ccc34)CC2)c1 [Example GI-41, 1-{5-ethyl-2-[(propan-2-yl)oxy]pyridin-3-yl}-N-(1H-indole-4-sulfonyl)cyclopropane-1-carboxamide] | +++ (≥350) | < 3 µM | > 150% | < 3 µM
Cc1cnc(OCC(C)C)c(C2(C(=O)NS(=O)(=O)c3cccc4ncccc34)CC2)c1 [Example GI-42, 1-[5-methyl-2-(2-methylpropoxy)pyridin-3-yl]-N-(quinoline-5-sulfonyl)cyclopropane-1-carboxamide] | +++ (≥350) | < 3 µM | > 150% | < 3 µM
Cc1cnc(OCC(C)C)c(C2(C(=O)NS(=O)(=O)c3cccc4nc(C)ccc34)CC2)c1 [Example GI-43, 1-[5-methyl-2-(2-methylpropoxy)pyridin-3-yl]-N-(2-methylquinoline-5-sulfonyl)cyclopropane-1-carboxamide] | +++ (≥350) | < 3 µM | > 150% | < 3 µM
Cc1cnc(OCC(C)C)c(C2(C(=O)NS(=O)(=O)c3cccc4[nH]ccc34)CC2)c1 [Example GI-44, N-(1H-indole-4-sulfonyl)-1-[5-methyl-2-(2-methylpropoxy)pyridin-3-yl]cyclopropane-1-carboxamide] | +++ (≥350) | < 3 µM | > 150% | < 3 µM
CCc1cnc(OCC(C)C)c(C2(C(=O)NS(=O)(=O)c3cccc4ncccc34)CC2)c1 [Example GI-45, 1-[5-ethyl-2-(2-methylpropoxy)pyridin-3-yl]-N-(quinoline-5-sulfonyl)cyclopropane-1-carboxamide] | +++ (≥350) | < 3 µM | > 150% | < 3 µM
CCc1cnc(OCC(C)C)c(C2(C(=O)NS(=O)(=O)c3cccc4nc(C)ccc34)CC2)c1 [Example GI-46, 1-[5-ethyl-2-(2-methylpropoxy)pyridin-3-yl]-N-(2-methylquinoline-5-sulfonyl)cyclopropane-1-carboxamide] | +++ (≥350) | < 3 µM | > 150% | < 3 µM
CCc1cnc(OCC(C)C)c(C2(C(=O)NS(=O)(=O)c3cccc4[nH]ccc34)CC2)c1 [Example GI-47, 1-[5-ethyl-2-(2-methylpropoxy)pyridin-3-yl]-N-(1H-indole-4-sulfonyl)cyclopropane-1-carboxamide] | +++ (≥350) | < 3 µM | > 150% | < 3 µM
CC(C)COc1ncc(C2CC2)cc1C1(C(=O)NS(=O)(=O)c2cccc3ncccc23)CC1 [Example GI-48, 1-[5-cyclopropyl-2-(2-methylpropoxy)pyridin-3-yl]-N-(quinoline-5-sulfonyl)cyclopropane-1-carboxamide] | +++ (≥350) | < 3 µM | > 150% | < 3 µM
Cc1ccc2c(S(=O)(=O)NC(=O)C3(c4cc(C5CC5)cnc4OCC(C)C)CC3)cccc2n1 [Example GI-49, 1-[5-cyclopropyl-2-(2-methylpropoxy)pyridin-3-yl]-N-(2-methylquinoline-5-sulfonyl)cyclopropane-1-carboxamide] | +++ (≥350) | < 3 µM | > 150% | < 3 µM
CC(C)COc1ncc(C2CC2)cc1C1(C(=O)NS(=O)(=O)c2cccc3[nH]ccc23)CC1 [Example GI-50, 1-[5-cyclopropyl-2-(2-methylpropoxy)pyridin-3-yl]-N-(1H-indole-4-sulfonyl)cyclopropane-1-carboxamide] | +++ (≥350) | < 3 µM | > 150% | < 3 µM
CC(C)COc1ncc(C2CCC2)cc1C1(C(=O)NS(=O)(=O)c2cccc3ncccc23)CC1 [Example GI-51, 1-[5-cyclobutyl-2-(2-methylpropoxy)pyridin-3-yl]-N-(quinoline-5-sulfonyl)cyclopropane-1-carboxamide] | +++ (≥350) | < 3 µM | > 150% | < 3 µM
CC(C)COc1ncc(C2CCC2)cc1C1(C(=O)NS(=O)(=O)c2cccc3[nH]ccc23)CC1 [Example GI-52, 1-[5-cyclobutyl-2-(2-methylpropoxy)pyridin-3-yl]-N-(1H-indole-4-sulfonyl)cyclopropane-1-carboxamide] | +++ (≥350) | < 3 µM | > 150% | < 3 µM
Cc1ccc2c(S(=O)(=O)NC(=O)C3(c4cc(C5CCC5)cnc4OCC(C)C)CC3)cccc2n1 [Example GI-53, 1-[5-cyclobutyl-2-(2-methylpropoxy)pyridin-3-yl]-N-(2-methylquinoline-5-sulfonyl)cyclopropane-1-carboxamide] | +++ (≥350) | < 3 µM | > 150% | < 3 µM
